Consider 36 molecules from patent US12581252B2, “Substituted pyrrolo[3,4-b]pyridines as PI3K-α inhibitors” (Relay Therapeutics, Inc., priority 2020, dated 2026).

Some results are limits rather than exact numbers.

By IC50 is commonly meant the concentration at which inhibition is half-maximal.

Sequence of H1047R PIK3CA enzyme (P42336 whole entry H1047R): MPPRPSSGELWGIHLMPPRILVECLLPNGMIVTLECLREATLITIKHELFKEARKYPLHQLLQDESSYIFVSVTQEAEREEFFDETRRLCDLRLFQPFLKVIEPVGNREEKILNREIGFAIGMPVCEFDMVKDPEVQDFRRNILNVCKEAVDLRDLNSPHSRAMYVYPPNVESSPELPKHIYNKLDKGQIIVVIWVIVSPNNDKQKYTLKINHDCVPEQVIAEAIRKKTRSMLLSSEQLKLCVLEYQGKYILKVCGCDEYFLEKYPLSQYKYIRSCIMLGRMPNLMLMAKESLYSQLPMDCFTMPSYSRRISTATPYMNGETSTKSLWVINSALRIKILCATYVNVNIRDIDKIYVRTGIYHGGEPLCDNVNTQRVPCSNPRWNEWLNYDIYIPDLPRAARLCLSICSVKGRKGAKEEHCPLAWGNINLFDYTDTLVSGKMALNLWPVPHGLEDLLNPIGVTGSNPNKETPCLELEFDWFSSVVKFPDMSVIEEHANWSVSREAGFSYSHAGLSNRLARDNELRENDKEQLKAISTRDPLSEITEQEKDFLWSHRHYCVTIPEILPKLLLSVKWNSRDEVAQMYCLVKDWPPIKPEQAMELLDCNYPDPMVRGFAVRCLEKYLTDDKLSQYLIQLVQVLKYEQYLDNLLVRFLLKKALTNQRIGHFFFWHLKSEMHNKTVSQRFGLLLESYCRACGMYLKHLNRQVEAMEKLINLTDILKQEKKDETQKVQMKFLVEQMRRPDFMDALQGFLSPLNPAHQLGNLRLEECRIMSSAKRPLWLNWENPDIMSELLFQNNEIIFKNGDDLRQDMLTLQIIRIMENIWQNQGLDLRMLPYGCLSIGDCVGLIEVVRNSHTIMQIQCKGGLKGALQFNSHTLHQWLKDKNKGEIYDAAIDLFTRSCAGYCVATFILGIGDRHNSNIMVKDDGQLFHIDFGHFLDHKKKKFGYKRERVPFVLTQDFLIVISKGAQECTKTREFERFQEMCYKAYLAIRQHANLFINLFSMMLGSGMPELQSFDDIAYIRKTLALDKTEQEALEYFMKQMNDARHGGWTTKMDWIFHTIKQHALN
Sequence of H1047R PIK3CA enzyme (P27986 whole entry partner): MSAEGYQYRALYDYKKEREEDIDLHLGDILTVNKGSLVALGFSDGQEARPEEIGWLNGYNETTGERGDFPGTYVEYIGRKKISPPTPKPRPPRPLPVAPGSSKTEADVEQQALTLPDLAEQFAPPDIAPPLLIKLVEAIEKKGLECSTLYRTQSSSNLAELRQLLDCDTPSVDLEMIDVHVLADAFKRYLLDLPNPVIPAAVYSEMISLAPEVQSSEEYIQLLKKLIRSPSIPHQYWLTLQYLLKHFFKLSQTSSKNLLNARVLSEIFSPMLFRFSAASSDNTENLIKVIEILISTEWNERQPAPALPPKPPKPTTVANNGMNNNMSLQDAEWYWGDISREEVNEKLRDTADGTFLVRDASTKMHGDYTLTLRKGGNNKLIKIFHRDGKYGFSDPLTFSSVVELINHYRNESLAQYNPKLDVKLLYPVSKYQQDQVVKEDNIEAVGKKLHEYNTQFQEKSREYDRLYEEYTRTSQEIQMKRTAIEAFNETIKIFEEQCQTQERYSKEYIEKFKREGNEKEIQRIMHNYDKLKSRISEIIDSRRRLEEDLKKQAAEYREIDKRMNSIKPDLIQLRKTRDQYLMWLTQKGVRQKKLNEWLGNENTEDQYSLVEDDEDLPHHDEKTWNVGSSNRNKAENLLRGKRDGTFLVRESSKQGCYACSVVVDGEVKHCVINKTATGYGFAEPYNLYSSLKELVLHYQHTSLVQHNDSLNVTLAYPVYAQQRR

The experiment addresses H1047R PIK3CA enzyme (Homo sapiens, UniProt P42336, H1047R). The experiment is described as follows: ADP-Glo Biochemical PIK3CA Kinase Assay. (In general: ADP-Glo turns the ADP formed in a reaction into a luminescent signal.)
In turn, `O=C(Nc1cc(-c2ccc3ncnn3c2)cc2c1[C@@H](c1cc(F)ccc1Cl)NC2=O)c1cc(F)cc(OC(F)(F)F)c1` (stereo in doubt) [Compound I-1117] registered an IC50 of 1000 to 10000 nM.
Next, `O=C(Nc1cc(-c2ccc3ncnn3c2)cc2c1[C@H](c1cc(F)ccc1Cl)NC2=O)c1cccc(C(F)(F)F)c1` (stereo in doubt) [Compound I-1121]: at most 100 nM; `O=C(Nc1cc(-n2ccnc2)cc2c1[C@@H](c1cc(F)ccc1Cl)NC2=O)c1cc(F)cc(C(F)(F)F)c1` (stereo in doubt) [Compound I-1125]: 100 to 500 nM.
Next, `O=C(Nc1cc(-n2ccnc2)cc2c1[C@H](c1cc(F)ccc1Cl)NC2=O)c1cc(F)cc(C(F)(F)F)c1` (stereo in doubt) [Compound I-1126]: at most 100 nM; `O=C(Nc1cc(-c2ccc3ncnn3c2)cc2c1[C@H](c1cc(F)ccc1Cl)NC2=O)c1cc(F)cc(Cl)c1` (stereo in doubt) [Compound I-1165]: at most 100 nM.
In the case of `O=C(Nc1cc(-c2ccc3ncnn3c2)cc2c1[C@@H](c1cc(F)ccc1Cl)NC2=O)c1cc(F)cc(Cl)c1` (stereo in doubt) [Compound I-1166], the IC50 was 1000 to 10000 nM.
With `Cc1ccc(C(=O)Nc2cc(-c3ccc4ncnn4c3)cc3c2[C@H](c2cc(F)ccc2Cl)NC3=O)cc1C(F)(F)F` (stereo in doubt) [Compound I-1167] the figure was at most 100 nM; with `Cc1ccc(C(=O)Nc2cc(-c3ccc4ncnn4c3)cc3c2[C@@H](c2cc(F)ccc2Cl)NC3=O)cc1C(F)(F)F` (stereo in doubt) [Compound I-1168], 10000 to 100000 nM; with `O=C(Nc1cc(-c2ccc3ncnn3c2)cc2c1[C@H](c1cc(F)ccc1Cl)NC2=O)c1cc(F)cc(OC(F)F)c1` (stereo in doubt) [Compound I-1169], 100 to 500 nM.
With `O=C(Nc1cc(-c2ccc3ncnn3c2)cc2c1[C@@H](c1cc(F)ccc1Cl)NC2=O)c1cc(F)cc(OC(F)F)c1` (stereo in doubt) [Compound I-1170] the figure was 10000 to 100000 nM; with `O=C(Nc1cc(-c2ccc3ncnn3c2)cc2c1[C@H](c1cc(F)ccc1Cl)NC2=O)c1cc(F)cc(C(F)F)c1` (stereo in doubt) [Compound I-1171], 100 to 500 nM; with `O=C(Nc1cc(-c2ccc3ncnn3c2)cc2c1[C@@H](c1cc(F)ccc1Cl)NC2=O)c1cc(F)cc(C(F)F)c1` (stereo in doubt) [Compound I-1172], 10000 to 100000 nM.
With `O=C(Nc1cc(-c2ccc3ncnn3c2)cc2c1[C@H](c1cc(F)ccc1Cl)NC2=O)c1cc(F)c(F)c(Cl)c1` (stereo in doubt) [Compound I-1173] the figure was at most 100 nM; with `O=C(Nc1cc(-c2ccc3ncnn3c2)cc2c1[C@@H](c1cc(F)ccc1Cl)NC2=O)c1cc(F)c(F)c(Cl)c1` (stereo in doubt) [Compound I-1174], 1000 to 10000 nM; with `O=C(Nc1cc(-c2ccc3ncnn3c2)cc2c1[C@@H](c1cc(F)ccc1Cl)NC2=O)c1cc(Cl)cc(Cl)c1` (stereo in doubt) [Compound I-1207], 1000 to 10000 nM.
In turn, `O=C(Nc1cc(-c2ccc3ncnn3c2)cc2c1[C@H](c1cc(F)ccc1Cl)NC2=O)c1cc(Cl)cc(Cl)c1` (stereo in doubt) [Compound I-1208] displayed an IC50 of at most 100 nM.
Molecule `N#Cc1cnccc1-c1cc(NC(=O)c2cc(F)cc(C(F)(F)F)c2)c2c(c1)C(=O)N[C@@H]2c1cc(F)ccc1Cl` (stereo in doubt) [Compound I-1231] showed an IC50 of 500 to 1000 nM.
Next, `N#Cc1cnccc1-c1cc(NC(=O)c2cc(F)cc(C(F)(F)F)c2)c2c(c1)C(=O)N[C@H]2c1cc(F)ccc1Cl` (stereo in doubt) [Compound I-1232]: at most 100 nM; `N#C[C@H]1C[C@H](Oc2cc(NC(=O)c3cc(F)cc(C(F)(F)F)c3)c3c(c2)C(=O)N[C@@H]3c2cc(F)ccc2Cl)C1` (stereo in doubt) [Compound I-1304]: 1000 to 10000 nM; `N#C[C@H]1C[C@H](Oc2cc(NC(=O)c3cc(F)cc(C(F)(F)F)c3)c3c(c2)C(=O)N[C@H]3c2cc(F)ccc2Cl)C1` (stereo in doubt) [Compound I-1305]: at most 100 nM.
With `O=C1N[C@@H](c2cc(F)ccc2Cl)c2c(NC(=O)N3CC4(CC4)c4cc(F)ccc43)cc(Br)cc21` (stereo in doubt) [Compound I-1509] the figure was at most 100 nM; with `O=C1N[C@H](c2cc(F)ccc2Cl)c2c(NC(=O)N3CC4(CC4)c4cc(F)ccc43)cc(Br)cc21` (stereo in doubt) [Compound I-1510], 1000 to 10000 nM; with `O=C(Nc1cc(-c2ccn3ncnc3c2)cc2c1[C@@H](c1cc(F)ccc1Cl)NC2=O)c1cc(F)cc(C(F)(F)F)c1` (stereo in doubt) [Compound I-1596], 1000 to 10000 nM.
Turning to `O=C(Nc1cc(-c2ccn3ncnc3c2)cc2c1[C@H](c1cc(F)ccc1Cl)NC2=O)c1cc(F)cc(C(F)(F)F)c1` (stereo in doubt) [Compound I-1597], the IC50 was at most 100 nM.
Next, `O=C(Nc1cc(Cc2ccc3c(c2)CNC3=O)cc2c1[C@H](c1cc(F)ccc1Cl)NC2=O)c1cc(F)cc(C(F)(F)F)c1` (stereo in doubt) [Compound I-1612]: at most 100 nM; `O=C(Nc1cc(Cc2ccc3c(c2)CNC3=O)cc2c1[C@@H](c1cc(F)ccc1Cl)NC2=O)c1cc(F)cc(C(F)(F)F)c1` (stereo in doubt) [Compound I-1613]: 100 to 500 nM.
Next, `O=C(Nc1cc(Cn2cccn2)cc2c1[C@@H](c1cc(F)ccc1Cl)NC2=O)c1cc(F)cc(C(F)(F)F)c1` (stereo in doubt) [Compound I-1614]: 100 to 500 nM; `O=C(Nc1cc(Cn2cccn2)cc2c1[C@H](c1cc(F)ccc1Cl)NC2=O)c1cc(F)cc(C(F)(F)F)c1` (stereo in doubt) [Compound I-1615]: at most 100 nM.
Consider `O=C(Nc1cc(-c2cn3ncnc3cc2F)cc2c1[C@@H](c1cc(F)ccc1Cl)NC2=O)c1cc(F)cc(C(F)(F)F)c1` (stereo in doubt) [Compound I-1701], for which the half-inhibitory concentration (IC50) lay in the range of 1000 to 10000 nM.
Next, `O=C(Nc1cc(-c2cn3ncnc3cc2F)cc2c1[C@H](c1cc(F)ccc1Cl)NC2=O)c1cc(F)cc(C(F)(F)F)c1` (stereo in doubt) [Compound I-1702]: at most 100 nM; `O=C1N[C@H](c2cc(F)ccc2Cl)c2c(NC(=O)N3CCc4ccccc43)cc(-c3ccc4ncnn4c3)cc21` (stereo in doubt) [Compound I-1716]: 1000 to 10000 nM; `N#Cc1cncn1Cc1cc(NC(=O)c2cc(F)cc(C(F)(F)F)c2)c2c(c1)C(=O)N[C@H]2c1cc(F)ccc1Cl` (stereo in doubt) [Compound I-1748]: at most 100 nM.
With `N#Cc1cncn1Cc1cc(NC(=O)c2cc(F)cc(C(F)(F)F)c2)c2c(c1)C(=O)N[C@@H]2c1cc(F)ccc1Cl` (stereo in doubt) [Compound I-1749] the figure was 100 to 500 nM; with `[2H]c1nc2ccc(-c3cc(NC(=O)c4cc(F)cc(C(F)(F)F)c4)c4c(c3)C(=O)N[C@H]4c3cc(F)ccc3Cl)cn2n1` (stereo in doubt) [Compound I-1785], at most 100 nM; with `[2H]c1nc2ccc(-c3cc(NC(=O)c4cc(F)cc(C(F)(F)F)c4)c4c(c3)C(=O)N[C@@H]4c3cc(F)ccc3Cl)cn2n1` (stereo in doubt) [Compound I-1786], 100 to 500 nM.
With `O=C1N[C@@H](c2cc(F)ccc2Cl)c2c(NC(=O)c3nsc4ccccc34)cc(-c3ccc4ncnn4c3)cc21` (stereo in doubt) [Compound I-1829] the figure was at most 100 nM.
